One data set deals with T1, mouse GIP receptor (Mus musculus, UniProt Q0P543).
T1 sequence (Q0P543 19-460): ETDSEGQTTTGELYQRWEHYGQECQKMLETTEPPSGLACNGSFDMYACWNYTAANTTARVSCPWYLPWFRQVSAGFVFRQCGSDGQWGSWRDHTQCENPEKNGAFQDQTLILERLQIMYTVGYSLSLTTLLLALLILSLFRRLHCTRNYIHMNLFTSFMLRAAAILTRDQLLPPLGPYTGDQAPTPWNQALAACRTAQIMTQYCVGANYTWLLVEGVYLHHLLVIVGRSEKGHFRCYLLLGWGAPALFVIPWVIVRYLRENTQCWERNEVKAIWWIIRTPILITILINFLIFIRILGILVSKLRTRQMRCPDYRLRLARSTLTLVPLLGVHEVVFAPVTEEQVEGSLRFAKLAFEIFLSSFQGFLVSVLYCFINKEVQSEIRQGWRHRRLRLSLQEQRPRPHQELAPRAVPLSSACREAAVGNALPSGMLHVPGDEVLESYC
Briefly: cell-based.

Data set [1] can be described thus: Pharmacokinetic study in minipigs (terminal half-life after i.v. administration). Format: in vivo. As to conditions: female, Göttingen, minipig, in vivo, iv. The protocol:
The purpose of this example is to determine the half-life in vivo of the derivatives of the present invention after i.v. administration to minipigs, i.e. the prolongation of their time in the body and thereby their time of action. This is done in a pharmacokinetic (PK) study, where the terminal half-life of the derivative in question is determined. By terminal half-life is generally meant the period of time it takes to […] certain plasma concentration, measured after the initial distribution phase. Female Göttingen minipigs were obtained from Ellegaard Göttingen Minipigs (Dalmose, Denmark) approximately 7-14 months of age and weighing from approximately 16-35 kg were used in the studies. The minipigs were housed individually and fed restrictedly once daily with SDS minipig diet (Special Diets Services, Essex, UK). After at 3 weeks of acclimatisation two permanent central venous catheters were implanted in vena cava caudalis in each animal. The animals were allowed 1 week recovery after the surgery, and were then used for repeated pharmacokinetic studies with a suitable wash-out period between successive derivative dosing. The animals were fasted for approximately 18 hours before dosing and from 0 to 4 hours after dosing, but had adlibitum access to water during the whole period. […] Blood samples (for example 0.8 mL) were collected in 8 mM EDTA buffer and then centrifuged at 4° C. and 1942 g for 10 minutes. Plasma was pipetted into Micronic tubes on dry ice and kept at -20° C. until analysed for plasma concentration of the compounds using ELISA, or a similar antibody-based assay, or LCMS. […] (Pharsight Inc., Mountain View, CA, USA), and the resulting terminal half-lives (harmonic mean) determined.

Another data set deals with T2, mouse GLP-1 receptor (Mus musculus, UniProt O35659).
T2 sequence (O35659 22-463): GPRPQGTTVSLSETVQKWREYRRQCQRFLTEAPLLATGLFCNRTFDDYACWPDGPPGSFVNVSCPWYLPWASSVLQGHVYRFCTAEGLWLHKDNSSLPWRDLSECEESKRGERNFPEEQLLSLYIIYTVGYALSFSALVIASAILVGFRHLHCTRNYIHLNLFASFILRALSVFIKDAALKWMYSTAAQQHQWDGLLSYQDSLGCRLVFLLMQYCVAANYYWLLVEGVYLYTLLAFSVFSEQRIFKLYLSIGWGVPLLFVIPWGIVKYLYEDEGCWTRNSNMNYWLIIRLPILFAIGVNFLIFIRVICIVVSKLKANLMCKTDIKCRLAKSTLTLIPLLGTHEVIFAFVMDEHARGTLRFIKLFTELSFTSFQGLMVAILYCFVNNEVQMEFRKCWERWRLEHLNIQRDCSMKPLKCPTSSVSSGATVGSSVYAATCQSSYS

In the next data set the target is human glucagon receptor (Homo sapiens, UniProt P47871). Briefly: cell-based.
For a further data set, the target named is human GLP-1 receptor (Homo sapiens, UniProt P43220). In words: cell-based. As to conditions: hGLP-1R.
Where [2] appears, read: minipigs, i.v. administration, harmonic mean, read-out: Terminal half-life t1/2 (converted).

Consider four compounds from patent US20230346961A1, “GLP-1 AND GIP RECEPTOR CO-AGONISTS” (Novo Nordisk A/S, priority 2020, published 2023).

Read-outs that look alike come from different tables or passages of the source. Starred links: 1 amine or outer side, 2 acyl side, 3 side chain; linkers in the order of their positions; H or OH if unused. Non-standard residues stand in square brackets, D forms with d. Residues, ends and D or L forms follow the SMILES beside them. Groups on a side chain read outwards from the residue. *: point of attachment. C20 diacid = O=C(O)CCCCCCCCCCCCCCCCCCC(=O)*; γGlu = O=C(O)[C@H](CCC(=O)[*:2])N[*:1]; εLys = N[C@@H](CCCCN[*:1])C(=O)[*:2]; Trx = NC[C@H]1CC[C@H](C(=O)O)CC1; AEEA = NCCOCCOCC(=O)O; Aib = CC(C)(N)C(=O)O Some results are limits rather than exact numbers.

human glucagon receptor, sequence (P47871 26-477): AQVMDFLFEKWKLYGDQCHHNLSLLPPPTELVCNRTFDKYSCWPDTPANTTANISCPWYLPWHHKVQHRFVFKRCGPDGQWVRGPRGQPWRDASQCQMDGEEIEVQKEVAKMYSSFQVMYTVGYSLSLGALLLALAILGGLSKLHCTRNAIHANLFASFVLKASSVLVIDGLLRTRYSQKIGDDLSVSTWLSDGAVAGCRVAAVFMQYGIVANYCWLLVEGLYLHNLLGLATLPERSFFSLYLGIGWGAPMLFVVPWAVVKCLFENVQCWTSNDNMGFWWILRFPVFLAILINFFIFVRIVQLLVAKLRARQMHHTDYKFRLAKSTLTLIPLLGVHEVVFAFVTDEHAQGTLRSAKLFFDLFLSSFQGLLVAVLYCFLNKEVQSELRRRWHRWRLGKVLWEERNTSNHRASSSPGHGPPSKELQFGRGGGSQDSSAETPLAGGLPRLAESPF
human GLP-1 receptor, sequence (P43220 24-463): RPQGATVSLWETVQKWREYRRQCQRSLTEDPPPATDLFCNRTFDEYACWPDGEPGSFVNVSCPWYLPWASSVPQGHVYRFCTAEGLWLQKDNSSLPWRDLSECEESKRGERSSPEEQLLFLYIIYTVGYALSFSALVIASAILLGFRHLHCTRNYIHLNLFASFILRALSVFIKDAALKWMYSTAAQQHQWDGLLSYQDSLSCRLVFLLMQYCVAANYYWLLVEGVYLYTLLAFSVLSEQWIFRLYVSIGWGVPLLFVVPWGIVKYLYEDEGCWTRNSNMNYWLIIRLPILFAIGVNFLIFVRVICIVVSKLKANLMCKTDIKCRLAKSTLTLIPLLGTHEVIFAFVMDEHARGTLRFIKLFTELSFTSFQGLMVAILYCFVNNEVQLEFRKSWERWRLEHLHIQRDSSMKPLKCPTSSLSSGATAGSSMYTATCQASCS

In general, EC50 refers to the concentration at which the effect is half-maximal. Lower therefore signals greater potency. For `CC[C@H](C)[C@H](NC(=O)[C@H](CO)NC(=O)[C@H](Cc1ccc(O)cc1)NC(=O)[C@H](CC(=O)O)NC(=O)[C@H](CO)NC(=O)[C@@H](NC(=O)[C@H](Cc1ccccc1)NC(=O)[C@@H](NC(=O)CNC(=O)[C@H](CCC(=O)O)NC(=O)C(C)(C)NC(=O)[C@@H](N)Cc1ccc(O)cc1)[C@@H](C)O)[C@@H](C)O)C(=O)N[C@@H](Cc1ccc(O)cc1)C(=O)N[C@@H](CC(C)C)C(=O)N[C@@H](CCC(=O)O)C(=O)N[C@@H](CCC(=O)O)C(=O)N[C@@H](CCC(N)=O)C(=O)N[C@@H](C)C(=O)N[C@@H](C)C(=O)NC(C)(C)C(=O)N[C@@H](CCCCNC(=O)[C@@H](N)CCCCNC(=O)[C@@H](N)CCCCNC(=O)CC[C@H](NC(=O)[C@H]1CC[C@H](CNC(=O)CCCCCCCCCCCCCCCCCCC(=O)O)CC1)C(=O)O)C(=O)N[C@@H](Cc1ccccc1)C(=O)N[C@H](C(=O)N[C@@H](CC(N)=O)C(=O)N[C@@H](Cc1c[nH]c2ccccc12)C(=O)N[C@@H](CC(C)C)C(=O)N[C@@H](CC(C)C)C(=O)N[C@@H](C)C(=O)NCC(=O)NCC(=O)N1CCC[C@H]1C(=O)N[C@@H](CO)C(=O)N[C@@H](CO)C(=O)NCC(=O)N[C@@H](C)C(=O)N1CCC[C@H]1C(=O)N1CCC[C@H]1C(=O)N1CCC[C@H]1C(=O)N[C@@H](CO)C(N)=O)C(C)C` [Compound 19] (H-Y[Aib]EGTFTSDYSIYLEEQAA[Aib]K([εLys-εLys-γGlu-Trx-C20 diacid])FVNWLLAGGPSSGAPPPS-NH2; N-terminus assumed), the EC50 at mouse GIP receptor is 0.134 nM; on mouse GLP-1 receptor, 0.0055 nM; at human glucagon receptor it was more than 10 nM; on human GLP-1 receptor (CRE Luc 0% HSA EC50, 0% HSA), 0.0046 nM; at human GLP-1 receptor (CRE Luc 1% HSA EC50, 1% HSA), 0.297 nM. Moreover, the half-life in data set [1] (setting [2]) was 112 h.

`CC[C@H](C)[C@H](NC(=O)[C@H](CO)NC(=O)[C@H](Cc1ccc(O)cc1)NC(=O)[C@H](CC(=O)O)NC(=O)[C@H](CO)NC(=O)[C@@H](NC(=O)[C@H](Cc1ccccc1)NC(=O)[C@@H](NC(=O)CNC(=O)[C@H](CCC(=O)O)NC(=O)C(C)(C)NC(=O)[C@@H](N)Cc1ccc(O)cc1)[C@@H](C)O)[C@@H](C)O)C(=O)N[C@@H](Cc1ccc(O)cc1)C(=O)N[C@@H](CC(C)C)C(=O)N[C@@H](CCC(=O)O)C(=O)N[C@@H](CCCCNC(=O)[C@@H](N)CCCCNC(=O)[C@@H](N)CCCCNC(=O)CC[C@H](NC(=O)[C@H]1CC[C@H](CNC(=O)CCCCCCCCCCCCCCCCCCC(=O)O)CC1)C(=O)O)C(=O)N[C@@H](CCC(N)=O)C(=O)N[C@@H](C)C(=O)N[C@@H](C)C(=O)NC(C)(C)C(=O)N[C@@H](CCC(=O)O)C(=O)N[C@@H](Cc1ccccc1)C(=O)N[C@H](C(=O)N[C@@H](CC(N)=O)C(=O)N[C@@H](Cc1c[nH]c2ccccc12)C(=O)N[C@@H](CC(C)C)C(=O)N[C@@H](CC(C)C)C(=O)N[C@@H](C)C(=O)NCC(=O)NCC(=O)N1CCC[C@H]1C(=O)N[C@@H](CO)C(=O)N[C@@H](CO)C(=O)NCC(=O)N[C@@H](C)C(=O)N1CCC[C@H]1C(=O)N1CCC[C@H]1C(=O)N1CCC[C@H]1C(=O)N[C@@H](CO)C(N)=O)C(C)C` [Compound 20] (H-Y[Aib]EGTFTSDYSIYLEK([εLys-εLys-γGlu-Trx-C20 diacid])QAA[Aib]EFVNWLLAGGPSSGAPPPS-NH2; N-terminus assumed): the half-maximal effective concentration (EC50) on mouse GIP receptor is 0.012 nM; at mouse GLP-1 receptor it was 0.0026 nM; at human glucagon receptor, more than 10 nM; on human GLP-1 receptor (CRE Luc 0% HSA EC50, 0% HSA) it was 0.0033 nM; on human GLP-1 receptor (CRE Luc 1% HSA EC50, 1% HSA), 0.261 nM. The half-life in data set [1] (setting [2]) is 88 h.

Regarding `CC[C@H](C)[C@H](NC(=O)[C@H](CO)NC(=O)[C@H](Cc1ccc(O)cc1)NC(=O)[C@H](CC(=O)O)NC(=O)[C@H](CO)NC(=O)[C@@H](NC(=O)[C@H](Cc1ccccc1)NC(=O)[C@@H](NC(=O)CNC(=O)[C@H](CCC(=O)O)NC(=O)C(C)(C)NC(=O)[C@@H](N)Cc1ccc(O)cc1)[C@@H](C)O)[C@@H](C)O)C(=O)N[C@@H](Cc1ccc(O)cc1)C(=O)N[C@@H](CC(C)C)C(=O)N[C@@H](CCC(=O)O)C(=O)N[C@@H](CCCCNC(=O)COCCOCCNC(=O)COCCOCCNC(=O)CC[C@H](NC(=O)[C@H]1CC[C@H](CNC(=O)CCCCCCCCCCCCCCCCCCC(=O)O)CC1)C(=O)O)C(=O)N[C@@H](CCC(N)=O)C(=O)N[C@@H](C)C(=O)N[C@@H](C)C(=O)NC(C)(C)C(=O)N[C@@H](CCC(=O)O)C(=O)N[C@@H](Cc1ccccc1)C(=O)N[C@H](C(=O)N[C@@H](CC(N)=O)C(=O)N[C@@H](Cc1c[nH]c2ccccc12)C(=O)N[C@@H](CC(C)C)C(=O)N[C@@H](CC(C)C)C(=O)N[C@@H](C)C(=O)NCC(=O)NCC(=O)N1CCC[C@H]1C(=O)N[C@@H](CO)C(=O)N[C@@H](CO)C(=O)NCC(=O)N[C@@H](C)C(=O)N1CCC[C@H]1C(=O)N1CCC[C@H]1C(=O)N1CCC[C@H]1C(=O)N[C@@H](CO)C(N)=O)C(C)C` [Compound 21] (H-Y[Aib]EGTFTSDYSIYLEK([AEEA-AEEA-γGlu-Trx-C20 diacid])QAA[Aib]EFVNWLLAGGPSSGAPPPS-NH2; N-terminus assumed), the concentration for a half-maximal effect (EC50) at mouse GIP receptor was 0.0366 nM; on mouse GLP-1 receptor it was 0.0026 nM; at human glucagon receptor, more than 10 nM; at human GLP-1 receptor (CRE Luc 0% HSA EC50, 0% HSA), 0.003 nM; on human GLP-1 receptor (CRE Luc 1% HSA EC50, 1% HSA), 0.465 nM. Moreover, the half-life in data set [1] is 62 h.

For the compound `CC[C@H](C)[C@H](NC(=O)[C@H](CO)NC(=O)[C@H](Cc1ccc(O)cc1)NC(=O)[C@H](CC(=O)O)NC(=O)[C@H](CO)NC(=O)[C@@H](NC(=O)[C@H](Cc1ccccc1)NC(=O)[C@@H](NC(=O)CNC(=O)[C@H](CCC(=O)O)NC(=O)C(C)(C)NC(=O)[C@@H](N)Cc1ccc(O)cc1)[C@@H](C)O)[C@@H](C)O)C(=O)N[C@@H](Cc1ccc(O)cc1)C(=O)N[C@@H](CC(C)C)C(=O)N[C@@H](CCC(=O)O)C(=O)N[C@@H](CCCCN)C(=O)N[C@@H](CCCCNC(=O)COCCOCCNC(=O)COCCOCCNC(=O)CC[C@H](NC(=O)[C@H]1CC[C@H](CNC(=O)CCCCCCCCCCCCCCCCCCC(=O)O)CC1)C(=O)O)C(=O)N[C@@H](C)C(=O)N[C@@H](C)C(=O)NC(C)(C)C(=O)N[C@@H](CCC(=O)O)C(=O)N[C@@H](Cc1ccccc1)C(=O)N[C@H](C(=O)N[C@@H](CC(N)=O)C(=O)N[C@@H](Cc1c[nH]c2ccccc12)C(=O)N[C@@H](CC(C)C)C(=O)N[C@@H](CC(C)C)C(=O)N[C@@H](C)C(=O)NCC(=O)NCC(=O)N1CCC[C@H]1C(=O)N[C@@H](CO)C(=O)N[C@@H](CO)C(=O)NCC(=O)N[C@@H](C)C(=O)N1CCC[C@H]1C(=O)N1CCC[C@H]1C(=O)N1CCC[C@H]1C(=O)N[C@@H](CO)C(N)=O)C(C)C` [Compound 22] (H-Y[Aib]EGTFTSDYSIYLEKK([AEEA-AEEA-γGlu-Trx-C20 diacid])AA[Aib]EFVNWLLAGGPSSGAPPPS-NH2; N-terminus assumed), the EC50 at mouse GIP receptor was 0.124 nM; at mouse GLP-1 receptor it was 0.0021 nM; on human glucagon receptor, more than 10 nM; on human GLP-1 receptor (CRE Luc 0% HSA EC50, 0% HSA), 0.0033 nM; on human GLP-1 receptor (CRE Luc 1% HSA EC50, 1% HSA), 1.13 nM. This compound had a half-life in data set [1] of 95 h.
